Measured values: ChEMBL document CHEMBL3853339, “Bioactive phenols as potential neuroinflammation inhibitors from the leaves of Xanthoceras sorbifolia Bunge” (Bioorg Med Chem Lett, 2016)

Assays:
[1] = Antineuroinflammatory activity in […] cells assessed as inhibition of LPS-induced NO production after 24 hrs in presence of LPS by Griess reaction; type: functional, cell-based; conditions: BV-2, 24 h
[2] = Cytotoxicity against LPS-activated human BV2 cells assessed as cell viability at 1 uM after 24 hrs by MTT assay (reference value: 98.03 to 98.84%); type: toxicity, cell-based, Mus musculus, BV-2; conditions: read-out: Activity
[3] = Cytotoxicity against LPS-activated human BV2 cells assessed as cell viability at 100 uM after 24 hrs by MTT assay (reference value: 98.03 to 98.84%); type: toxicity, cell-based, Mus musculus, BV-2; conditions: read-out: Activity
[4] = Cytotoxicity against LPS-activated […] cells assessed as cell viability at 10 uM after 24 hrs by MTT assay (reference value: 98.03 to 98.84%); type: toxicity, cell-based, Mus musculus, BV-2; conditions: read-out: Activity
[5] = Cytotoxicity against LPS-activated […] cells assessed as cell viability at 30 uM after 24 hrs by MTT assay (reference value: 98.03 to 98.84%); type: toxicity, cell-based, Mus musculus, BV-2; conditions: read-out: Activity

SMILES	IC50 [1] [µM]	viability at 24 h, 1 µM [2] [%]	viability at 24 h, 100 µM [3] [%]	viability at 24 h, 10 µM [4] [%]	viability at 24 h, 30 µM [5] [%]
COc1cc([C@H]2OC[C@H]3[C@@H]2CO[C@@H]3c2cc(OC)c(O[C@@H]3O[C@H](CO)[C@@H](O)[C@H](O)[C@H]3O)c(OC)c2)cc(OC)c1O	3.08	92.9	94.4	87.4	95.4
COc1cc(CO)cc(OC)c1O[C@@H]1O[C@H](CO)[C@@H](O)[C@H](O)[C@H]1O	> 100	91.1	87	94.7	90.7
O=C(O)/C=C\c1ccc(O[C@@H]2O[C@H](CO)[C@@H](O)[C@H](O)[C@H]2O)cc1	> 100	90.9	90	95.4	93
COc1cc([C@@H]2OC[C@H]3[C@@H]2CO[C@@H]3c2cc(OC)c(O[C@@H]3O[C@H](CO)[C@@H](O)[C@H](O)[C@H]3O)c(OC)c2)cc(OC)c1O	> 100	92.4	100	91.6	102
COc1cc([C@@H]2OC[C@H]3[C@@H]2CO[C@H]3c2cc(OC)c(O[C@@H]3O[C@H](CO)[C@@H](O)[C@H](O)[C@H]3O)c(OC)c2)cc(OC)c1O[C@@H]1O[C@H](CO)[C@@H](O)[C@H](O)[C@H]1O	> 100	100	94.9	97.5	100
COc1cc(/C=C/C(=O)O)cc(OC)c1O[C@@H]1O[C@H](CO)[C@@H](O)[C@H](O)[C@H]1O	> 100	94.5	95.6	96.3	93.1
C[C@@H]1O[C@@H](OC[C@H]2O[C@@H](Oc3c(-c4cc(O)c(O)c(O)c4)oc4cc(O)cc(O)c4c3=O)[C@H](O)[C@@H](O)[C@@H]2O)[C@H](O)[C@H](O)[C@H]1O	74.7	92.2	86.9	87.1	86
Oc1cc(O)c2c(c1)O[C@]1(c3ccc(O)c(O)c3)Oc3cc(O)c4c(c3[C@H]2[C@@H]1O)O[C@@]1(c2ccc(O)c(O)c2)Oc2cc(O)c3c(c2[C@@H]4[C@H]1O)O[C@@H](c1ccc(O)c(O)c1)[C@H](O)C3	> 100	94.4	112	97.3	104
O=C(O)/C=C/c1ccc(O[C@@H]2O[C@H](CO)[C@@H](O)[C@H](O)[C@H]2O)cc1	9.08	101	94.7	98.4	101
O=c1c(O[C@@H]2O[C@H](CO)[C@@H](O)[C@H](O)[C@H]2O[C@@H]2O[C@H](CO)[C@@H](O)[C@H](O)[C@H]2O)c(-c2ccc(O)c(O)c2)oc2cc(O)cc(O)c12	> 100	84.5	108	87.7	96.5
C[C@@H]1O[C@@H](Oc2c(-c3cc(O)c(O)c(O)c3)oc3cc(O)cc(O)c3c2=O)[C@H](O)[C@H](O)[C@H]1O	> 100	97.9	107	99.5	99.3
Oc1cc(O)c2c(c1)O[C@H](c1ccc(O)c(O)c1)[C@H](O)C2 [(-)-EPICATECHIN]	47.4	84.4	93.2	87.6	88
Oc1cc(O)c2c(c1)O[C@H](c1ccc(O)c(O)c1)[C@@H](O)C2 [CIANIDANOL]	9.52	81.5	117	88.3	102
Oc1cc(O)c2c(c1)O[C@H](c1cc(O)c(O)c(O)c1)[C@H](O)C2 [EPIGALLOCATECHIN]	> 100	95.3	94.6	96.4	100
Oc1cc(O)c2c(c1)O[C@H](c1cc(O)c(O)c(O)c1)[C@@H](O)C2 [GALLOCATECHIN]	> 100	89.5	82.6	94.2	89.5
O=c1c(O[C@@H]2O[C@H](CO)[C@@H](O)[C@H](O)[C@H]2O)c(-c2ccc(O)c(O)c2)oc2cc(O)cc(O)c12 [ISOQUERCETIN]	13.4	101	85.2	98.4	87.7
CN(C)c1ccc(O)c2c1C[C@H]1C[C@H]3[C@H](N(C)C)C(O)=C(C(N)=O)C(=O)[C@@]3(O)C(O)=C1C2=O [MINOCYCLINE]	37				
O=c1c(O)c(-c2cc(O)c(O)c(O)c2)oc2cc(O)cc(O)c12 [MYRICETIN]	> 100	97.7	116	98.4	109
COc1cc(-c2oc3cc(O)cc(O)c3c(=O)c2O[C@@H]2O[C@H](CO[C@@H]3O[C@@H](C)[C@H](O)[C@@H](O)[C@H]3O)[C@@H](O)[C@H](O)[C@H]2O)ccc1O [NARCISSIN]	> 100	95.1	88.8	89.5	88.7
C[C@@H]1O[C@@H](OC[C@H]2O[C@@H](Oc3c(-c4ccc(O)cc4)oc4cc(O)cc(O)c4c3=O)[C@H](O)[C@@H](O)[C@@H]2O)[C@H](O)[C@H](O)[C@H]1O [NICOTIFLOROSIDE]	88	98.7	113	110	92.1
O=c1c(O)c(-c2ccc(O)c(O)c2)oc2cc(O)cc(O)c12 [QUERCETIN]	39.5	87.5	99.7	90.7	96.9
C[C@@H]1O[C@@H](Oc2c(-c3ccc(O)c(O)c3)oc3cc(O)cc(O)c3c2=O)[C@H](O)[C@H](O)[C@H]1O [QUERCITRIN]	> 100	92	96.5	91	99.3
C[C@@H]1O[C@@H](OC[C@H]2O[C@@H](Oc3c(-c4ccc(O)c(O)c4)oc4cc(O)cc(O)c4c3=O)[C@H](O)[C@@H](O)[C@@H]2O)[C@H](O)[C@H](O)[C@H]1O [RUTIN]		97.2	95	94.6	91
